The test system of one series is 109QmHtt. The experiment in a line: Filter trap assay of aggregated 109QmHtt in Neuro2a cells. It counts as cell-based. As for the experimental part: FIG. 4. Testing the ability of therapeutic peptides to decrease mHtt aggregation in Neuro2a cells overexpressing mHtt. Panel A: Filter trap assays and corresponding quantitation of cells (panel B) treated as indicated at 8 hours (T1), 24 hours (T2), or both (T1+2) after transfection with the 109QmHtt construct. […] Panel C: Western blots and quantitation (panel D) of RIPA-soluble (sol) and -insoluble (ins) fractions of Neuro2a cells overexpressing 25QHtt or 109QmHtt and treated as indicated. […] Panel E: Western blot of the 109QmHtt in cells treated as indicated. Note that MG132 blocked the effect of 8R10Q peptide with respect to decreasing insoluble 109QmHtt. Panel F: Quantitation of ratio of 109QmHtt in cells treated MG132 (+) over DMSO (−) in relationship to peptides. Statistical analysis conducted with one way ANOVA, *<0.05, **<0.01, ***<0.001, ns: not significant.
Whether the peptides could modulate the aggregation propensity of mHtt was next investigated.

The next series concerns R6/2 transgenic mice. Description: Therapeutic effect in R6/2 transgenic mice (function, blood sugar, lifespan). It counts as in vivo, mouse. From the text: FIG. 6. 8R10Q ameliorated functional deterioration of R6/2 transgenic mice. Panel A: Longitudinal rotarod performance of wild type (WT) and R6/2 mice treated with PBS or 8R10Q peptide. Note the significant delay in motor deterioration of R6/2 mice treated with 8R10Q from 11 weeks of age. Panel B: T maze test of WT and R6/2 mice at 13 weeks of age. […] Panel C: The curves of blood sugar in serum of WT and R6/2 mice treated as indicated. […] Panel D: Lifespan of WT and R6/2 mice treated with PBS vs. 8R10Q. 100% of R6/2 mice died before 16 weeks of age. […] WT mice N=6/group; R6/2 mice N=10/group; statistical analysis performed with two way ANOVA (panels A and C), one way ANOVA (panel B), *p<0.05; **p<0.01; ***p<0.001, ns: not significant, and log-rank (Mantel-Cox) Test (D), ***p<0.0001.
To test the therapeutic effect of the peptide in vivo, the 8R10Q peptide was delivered 6 days/week into the wild type (WT) or R6/2 transgenic mice through intranasal aspiration or continuously with the Alzet osmotic minipumps into the neostriatum. […] In fact, the 8R10Q-treated R6/2 mice performed even better than the 11 week-old PBS-treated mice on average. […] The R6/2 mice were previously reported to have diabetes. Bjorkqvist et al., Hum Mol Genet (2005) 14:565-74; and Hunt et al., Experimental Brain Res (2005) 166:220-9. […] To sum up, the 8R10Q peptide effectively delayed the onset of disease and ameliorated the pathological phenotypes.

For series [1], the system named is Neuro2a cells expressing 109QmHtt. Description: Cell growth curve of Neuro2a cells expressing 109QmHtt. Format: cell-based, mouse. Conditions: 109QmHtt with or without 12.5 μM H2O2; vs 8R or scrambled control. As for the experimental part:
(§1) FIG. 5. Therapeutic effect of 8R10Q and 8R15Q in 109QmHtt-expressing cells. Panel A: Cell viability assay by MTT in Neuro2a cells expressing 25QHtt (left) or 109QmHtt (right) treated with H2O2 at 50 μM and the indicated peptide. Panel B: Cell growth curve of Neuro2a cells expressing 25QHtt or 109QmHtt treated with indicated peptide. The cells in right subpanel were further treated with H2O2 at 12.5 μM 16 hours after transfection. 109QmHtt cells growth was slower than that of the 25QHtt cells. 8R10Q treatment rescued the slow growth of Neuro2a cells by 109QmHtt with or without H2O2. Panel C: Micrographs of the phase contrast and fluorescent images of retinoic acid-differentiated Neu2a cells expressing GFP-25QHtt or GFP-109QmHtt (GFP) treated with the indicated peptide. Note the neurites of the differentiated cells. Panel D: Quantitation of the percentage of differentiated cells with neurites. Fewer 109QmHtt-expressing cells had neurites vs. 25QHtt-expressing cells. […] The experiments were conducted in triplicate and repeated twice. Statistical analysis was performed with one way ANOVA, *p<0.05; **p<0.01; ***p<0.001, ns: not significant.
The expression of 109QmHtt reduced the growth of Neuro2a cells, and so did the lower levels of H2O2 (12.5 μM) (FIG. 5, panel B).

The nature of series [2]: Solubility of therapeutic peptides. Format: physicochemical. As for the experimental part: In this study, the rational design was tested for HD. Several bipartite therapeutic peptides containing 8 consecutive arginines (8R) attached to a stretch of consecutive glutamines (polyQ) were synthesized and their biological activity of decreasing the aggregation propensity of the mHtt protein was investigated. The length of the polyQ of these bipartite peptides was 5 (8R5Q), 10 (8R10Q), 15 (8R15Q) or 20 (8R20Q) (Table 2).

Series [3] has as its system Neuro2a cells expressing 109QmHtt. Description: Retinoic acid-induced neurite outgrowth. The settings on record: 109QmHtt cells; vs water or scrambled control. It counts as cell-based, mouse. As for the experimental part:
as §1
Retinoic acid (RA) induced the differentiation of Neuro2a cells with neurite outgrowth. 109QmHtt decreased the number of cells bearing RA-induced neurites relative to 25QHtt (FIG. 5, panels C and D).

For “H-RRRRRRRRWDQQQQQQQQQQ-NH2 [Peptide 8R10Q, NH2-(R)8-W-D-(Q)10-CONH2]”, the “aggregated 109QmHtt by filter trap assay” value in the series on 109QmHtt (20 μM peptide added at 8 hours (T1) or 8 plus 24 hours (T1+T2) after transfection, vs water or 8R) is “significantly reduced”; in the series on 109QmHtt (peptide added at 24 hours alone), “no obvious effects”. Also, in the series with R6/2 transgenic mice (13 week-old R6/2 mice, intranasal), the “T maze test memory” value was “corrected the memory deficit”. Also, in the series on R6/2 transgenic mice (Alzet osmotic minipumps into the neostriatum), the “rotarod therapeutic effect, intracerebral delivery” value is reported as “very similar therapeutic effect to that given intranasally”. Besides, the “diabetic phenotype, inflammatory index and abnormal liver function” value with R6/2 transgenic mice (R6/2 mice) is reported as “decreased”. The diabetes phenotype entry with R6/2 transgenic mice (R6/2 mice, intracerebral) is on record as “significantly corrected the diabetes phenotype”. Also, in the series on R6/2 transgenic mice (R6/2 mice, intranasal), the blood sugar result was “delayed the rise and decreased the level of blood sugar”. Also, the “prevention of premature death” value in the series with R6/2 transgenic mice (R6/2 mice, intranasal, at 16 weeks of age) is given as 41%. Also, the “age until which motor deterioration (rotarod) was delayed” value in the series with R6/2 transgenic mice (R6/2 mice, intranasal, deterioration significant from 11 weeks with PBS) stood at 13 weeks. Besides, the body weights entry in the series on R6/2 transgenic mice (WT or R6/2 mice, intranasal or intracerebral route) is “remained comparable to those treated with PBS”. Also, the cell growth result in series [1] is “ameliorated the reduction in growth”. The “Solubility (DMEM/10% FBS)” value in series [2] (DMEM/10% FBS) is “Soluble”. Further, the “solubility in water or culture medium” value in series [2] (water or culture medium) is “highly soluble”. The RA-induced neurite outgrowth entry in series [3] is recorded as “significantly reversed the defect in neurite outgrowth”.

The record behind these values is patent publication US12590130B2, “Bipartite molecules and uses thereof in treating diseases associated with abnormal protein aggregates” (ACADEMIA SINICA, priority 2014, dated 2026).
